Reference: patent publication US8288552B2, “Dihydropyridone amidesas P2X7 modulators” (Roche Palo Alto LLC, priority 2008, dated 2012)

Biological target: T1, P2X7 (UniProt Q99572)
T1 sequence (Q99572 1-595): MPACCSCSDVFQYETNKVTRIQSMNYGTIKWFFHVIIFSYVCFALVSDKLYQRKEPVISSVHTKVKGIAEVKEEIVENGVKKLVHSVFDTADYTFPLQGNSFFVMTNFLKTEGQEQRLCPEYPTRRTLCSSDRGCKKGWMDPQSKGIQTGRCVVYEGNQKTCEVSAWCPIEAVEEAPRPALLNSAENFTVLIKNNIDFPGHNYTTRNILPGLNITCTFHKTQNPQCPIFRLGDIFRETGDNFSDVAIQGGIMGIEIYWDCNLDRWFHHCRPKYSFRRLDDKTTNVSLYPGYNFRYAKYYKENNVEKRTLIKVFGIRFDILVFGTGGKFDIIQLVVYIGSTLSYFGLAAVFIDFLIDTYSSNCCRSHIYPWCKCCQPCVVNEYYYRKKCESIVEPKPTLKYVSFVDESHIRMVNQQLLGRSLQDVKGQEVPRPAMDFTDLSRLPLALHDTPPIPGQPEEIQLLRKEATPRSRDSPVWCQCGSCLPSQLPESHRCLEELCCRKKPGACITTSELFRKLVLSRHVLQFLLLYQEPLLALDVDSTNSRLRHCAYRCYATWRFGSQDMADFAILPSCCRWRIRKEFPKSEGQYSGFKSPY
Experiment: P2X7 pKi of Table 1
Type: cell-based
Outline: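 Human P2X7 in 1321N1 cells and rat P2X7 in HEK293 cells, loaded with fluo-3 for 1 hr at 37° C, then exposed to antagonist for 20 min at room temperature. BzATP agonist was used at 100 μM final (human) or 5 μM final (rat), with fluorescence read for 5 min. The response was normalized to maximal fluorescence evoked by 5 μM ionomycin.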

| SMILES | pKi |
| --- | --- |
| CC(=O)COc1cc(NC(=O)C2=CNC(=O)C[C@H]2c2cccc(F)c2)c(C)cc1F [Compound 85, (S)-4-(3-Fluoro-phenyl)-6-oxo-1,4,5,6-tetrahydro-pyridine-3-carboxylic acid[4-fluoro-2-methyl-5-(2-oxo-propoxy)-phenyl]-amide] | 6.705 |
| COc1cc(Br)c(NC(=O)C2=CNC(=O)CC2c2ccccc2)cc1OC (stereo not drawn) [Compound 1, 6-Oxo-4-phenyl-1,4,5,6-tetrahydro-pyridine-3-carboxylic acid(2-bromo-4,5-dimethoxy-phenyl)-amide] | 7.4925 |
| COC[C@@H](O)COc1cc(NC(=O)C2=CN(C)C(=O)C[C@H]2c2cccc(F)c2)c(C)cc1Cl [Compound 149, (S)-4-(3-Fluoro-phenyl)-1-methyl-6-oxo-1,4,5,6-tetrahydro-pyridine-3-carboxylic acid[4-chloro-5-((S)-2-hydroxy-3-methoxy-propoxy)-2-methyl-phenyl]-amide] | 6.035 |
| O=C1CC(c2ccc(F)cc2)C(C(=O)Nc2cc(OCCO)c(Cl)cc2Br)=CN1 (stereo not drawn) [Compound 65, 4-(4-Fluoro-phenyl)-6-oxo-1,4,5,6-tetrahydro-pyridine-3-carboxylic acid[2-bromo-4-chloro-5-(2-hydroxy-ethoxy)-phenyl]-amide] | 6.7 |
| COc1cc(NC(=O)C2=CNC(=O)CC2c2ccc(F)cc2)c(Br)cc1Cl (stereo not drawn) [Compound 6, 4-(4-Fluoro-phenyl)-6-oxo-1,4,5,6-tetrahydro-pyridine-3-carboxylic acid(2-bromo-4-chloro-5-methoxy-phenyl)-amide] | 6.166 |
| COc1ccc(C)c(NC(=O)C2=CNC(=O)CC2c2cccc(F)c2)c1 (stereo not drawn) [Compound 20, 4-(3-Fluoro-phenyl)-6-oxo-1,4,5,6-tetrahydro-pyridine-3-carboxylic acid(5-methoxy-2-methyl-phenyl)-amide] | 6.815 |
| COc1ccc(Br)c(NC(=O)C2=CNC(=O)CC2c2ccc(F)cc2)c1 (stereo not drawn) [Compound 18, 4-(4-Fluoro-phenyl)-6-oxo-1,4,5,6-tetrahydro-pyridine-3-carboxylic acid(2-bromo-5-methoxy-phenyl)-amide] | 6.08 |
| COc1cc(C)c(NC(=O)C2=C(C)NC(=O)CC2c2ccc(F)cc2)cc1OC (stereo not drawn) [Compound 126, 4-(4-Fluoro-phenyl)-2-methyl-6-oxo-1,4,5,6-tetrahydro-pyridine-3-carboxylic acid (4,5-dimethoxy-2-methyl-phenyl)-amide] | 6.48 |
| Cc1c(C#N)cccc1NC(=O)C1=CNC(=O)C[C@H]1c1ccc(F)cc1 [Compound 115, (S)-4-(4-Fluoro-phenyl)-6-oxo-1,4,5,6-tetrahydro-pyridine-3-carboxylic acid(3-cyano-2-methyl-phenyl)-amide] | 5.815 |
| CCN1C=C(C(=O)Nc2cc(OC)c(OC)cc2C)[C@H](c2ccc(F)cc2)CC1=O [Compound 144, (S)-1-Ethyl-4-(4-fluoro-phenyl)-6-oxo-1,4,5,6-tetrahydro-pyridine-3-carboxylic acid(4,5-dimethoxy-2-methyl-phenyl)-amide] | 7.06 |
| CC(=O)Nc1ccc(Cl)c(NC(=O)C2=CNC(=O)CC2c2cccc(F)c2)c1 (stereo not drawn) [Compound 21, 4-(3-Fluoro-phenyl)-6-oxo-1,4,5,6-tetrahydro-pyridine-3-carboxylic acid(5-acetylamino-2-chloro-phenyl)-amide] | 6.02 |
| Cc1cc(Cl)c(OCC(C)O)cc1NC(=O)C1=CNC(=O)C[C@H]1c1cccc(F)c1 (stereo partly drawn) [Compound 116, (S)-4-(3-Fluoro-phenyl)-6-oxo-1,4,5,6-tetrahydro-pyridine-3-carboxylic acid[4-chloro-5-(2-hydroxy-propoxy)-2-methyl-phenyl]-amide] | 7.21 |
| CC(=O)c1ccc(C)c(NC(=O)C2=CNC(=O)C[C@H]2c2ccc(F)cc2)c1 [Compound 93, (S)-4-(4-Fluoro-phenyl)-6-oxo-1,4,5,6-tetrahydro-pyridine-3-carboxylic acid(5-acetyl-2-methyl-phenyl)-amide] | 6.86 |
| Cc1cccc(NC(=O)C2=CNC(=O)CC2c2cccc(F)c2)c1C (stereo not drawn) [Compound 63, 4-(3-Fluoro-phenyl)-6-oxo-1,4,5,6-tetrahydro-pyridine-3-carboxylic acid(2,3-dimethyl-phenyl)-amide] | 7.405 |
| O=C1C[C@@H](c2ccc(F)cc2)C(C(=O)NCc2ccccc2Cl)=CN1 [Compound 97, (S)-4-(4-Fluoro-phenyl)-6-oxo-1,4,5,6-tetrahydro-pyridine-3-carboxylic acid 2-chloro-benzylamide] | 6.16 |
| Cc1c(NC(=O)C2=CNC(=O)C[C@H]2c2ccc(F)cc2)cccc1C(=O)N(C)C [Compound 110, (S)-4-(4-Fluoro-phenyl)-6-oxo-1,4,5,6-tetrahydro-pyridine-3-carboxylic acid(3-dimethylcarbamoyl-2-methyl-phenyl)-amide] | 5.43 |
| COc1cc(C)c(NC(=O)C2=C(C)NC(=O)CC2c2ccc(C(F)(F)F)cc2)cc1OC (stereo not drawn) [Compound 127, 2-Methyl-6-oxo-4-(4-trifluoromethyl-phenyl)-1,4,5,6-tetrahydro-pyridine-3-carboxylic acid(4,5-dimethoxy-2-methyl-phenyl)-amide] | 5.055 |
| COc1ccc(NC(=O)C2=CNC(=O)C[C@H]2c2ccc(F)cc2)cc1OC [Compound 133, (S)-4-(4-Fluoro-phenyl)-6-oxo-1,4,5,6-tetrahydro-pyridine-3-carboxylic acid (3,4-dimethoxy-phenyl)-amide] | 6.04 |
| O=C1C[C@@H](c2ccc(F)cc2)C(C(=O)Nc2cccc(Cl)c2Cl)=CN1 [Compound 128, (S)-4-(4-Fluoro-phenyl)-6-oxo-1,4,5,6-tetrahydro-pyridine-3-carboxylic acid (2,3-dichloro-phenyl)-amide] | 6.75 |
| Cc1cc(Cl)c(OCC(C)O)cc1NC(=O)C1=CNC(=O)CC1c1cccc(F)c1 (stereo not drawn) [Compound 77, 4-(3-Fluoro-phenyl)-6-oxo-1,4,5,6-tetrahydro-pyridine-3-carboxylic acid[4-chloro-5-(2-hydroxy-propoxy)-2-methyl-phenyl]-amide] | 7.375 |
| Cc1cc(C)cc(NC(=O)C2=CNC(=O)CC2c2ccc(F)cc2)c1 (stereo not drawn) [Compound 14, 4-(4-Fluoro-phenyl)-6-oxo-1,4,5,6-tetrahydro-pyridine-3-carboxylic acid(3,5-dimethyl-phenyl)-amide] | 6.535 |
| COc1cc(C)c(NC(=O)C2=CNC(=O)CC2c2cccc(F)c2)cc1OC (stereo not drawn) [Compound 24, 4-(3-Fluoro-phenyl)-6-oxo-1,4,5,6-tetrahydro-pyridine-3-carboxylic acid(4,5-dimethoxy-2-methyl-phenyl)-amide] | 7.69 |
| Cc1ccc(C(C)O)cc1NC(=O)C1=CNC(=O)C[C@H]1c1ccc(F)cc1 (stereo partly drawn) [Compound 80, (S)-4-(4-Fluoro-phenyl)-6-oxo-1,4,5,6-tetrahydro-pyridine-3-carboxylic acid[5-(1-hydroxy-ethyl)-2-methyl-phenyl]-amide] | 7.59 |
| Cc1ccc(C(N)=O)cc1NC(=O)C1=CNC(=O)C[C@H]1c1ccc(F)cc1 [Compound 135, (S)-4-(4-Fluoro-phenyl)-6-oxo-1,4,5,6-tetrahydro-pyridine-3-carboxylic acid(5-carbamoyl-2-methyl-phenyl)-amide] | 5.8767 |
| Cc1c(Cl)cccc1NC(=O)C1=CNC(=O)C[C@H]1c1cccc(F)c1 [Compound 88, (S)-4-(3-Fluoro-phenyl)-6-oxo-1,4,5,6-tetrahydro-pyridine-3-carboxylic acid(3-chloro-2-methyl-phenyl)-amide] | 7.915 |
| Cc1cc(Cl)c(OCC(O)CO)cc1NC(=O)C1=CNC(=O)C[C@H]1c1cccc(F)c1 (stereo partly drawn) [Compound 81, (S)-4-(3-Fluoro-phenyl)-6-oxo-1,4,5,6-tetrahydro-pyridine-3-carboxylic acid[4-chloro-5-(2,3-dihydroxy-propoxy)-2-methyl-phenyl]-amide] | 5.76 |
| COc1ccc(Br)c(NC(=O)C2=CNC(=O)CC2c2cccc(F)c2)c1 (stereo not drawn) [Compound 19, 4-(3-Fluoro-phenyl)-6-oxo-1,4,5,6-tetrahydro-pyridine-3-carboxylic acid(2-bromo-5-methoxy-phenyl)-amide] | 6.19 |
| Cc1cc(Cl)c(OCC(C)O)cc1NC(=O)C1=CNC(=O)C[C@H]1c1cccc(F)c1 (stereo partly drawn) [Compound 117, (S)-4-(3-Fluoro-phenyl)-6-oxo-1,4,5,6-tetrahydro-pyridine-3-carboxylic acid[4-chloro-5-(2-hydroxy-propoxy)-2-methyl-phenyl]-amide] | 7.06 |
| COc1cc(C)c(NC(=O)C2=CN(CCO)C(=O)CC2c2ccc(F)cc2)cc1OC (stereo not drawn) [Compound 79, 4-(4-Fluoro-phenyl)-1-(2-hydroxy-ethyl)-6-oxo-1,4,5,6-tetrahydro-pyridine-3-carboxylic acid(4,5-dimethoxy-2-methyl-phenyl)-amide] | 7.42 |
| COC[C@@H](O)COc1cc(NC(=O)C2=CNC(=O)C[C@H]2c2ccc(F)cc2)c(C)cc1Cl [Compound 148, (S)-4-(4-Fluoro-phenyl)-6-oxo-1,4,5,6-tetrahydro-pyridine-3-carboxylic acid[4-chloro-5-((S)-2-hydroxy-3-methoxy-propoxy)-2-methyl-phenyl]-amide] | 6.49 |
